O=C1CCc2ccc(OCCCCN3CCN(c4cccc(Cl)c4Cl)CC3)cc2N1
solubility (mole fraction)
Conditions	278.15 K	283.15 K	288.15 K	293.15 K	298.15 K	303.15 K	308.15 K	313.15 K	318.15 K
in acetone	1.97e-05	2.73e-05	3.6e-05	4.71e-05	5.94e-05	7.32e-05	8.93e-05	0.00011	0.000135
in isopropanol	6.32e-06	9.1e-06	1.22e-05	1.68e-05	2.25e-05	2.94e-05	3.89e-05	5.05e-05	6.38e-05
in n-propanol	1.46e-05	1.93e-05	2.57e-05	3.28e-05	4.12e-05	5.37e-05	6.72e-05	8.32e-05	0.000103
